Results: BindingDB's records for doi:10.1124/jpet.105.083337 (Neurocrine Biosciences, 2005)

Target: Melanocortin receptor 4 (Homo sapiens, UniProt P32245)
Sequence (P32245 whole entry): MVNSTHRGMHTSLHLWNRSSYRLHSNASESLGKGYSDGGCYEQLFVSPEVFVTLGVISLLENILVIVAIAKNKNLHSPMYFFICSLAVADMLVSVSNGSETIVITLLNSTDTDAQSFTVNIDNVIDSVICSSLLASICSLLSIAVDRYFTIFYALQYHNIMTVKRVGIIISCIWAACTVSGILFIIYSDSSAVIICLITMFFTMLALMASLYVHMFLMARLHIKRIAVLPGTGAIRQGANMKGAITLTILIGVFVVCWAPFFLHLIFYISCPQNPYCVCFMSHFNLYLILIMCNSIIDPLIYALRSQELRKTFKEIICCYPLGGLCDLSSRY

| SMILES | Ki |
| --- | --- |
| CC(Nc1cc[nH]c1)c1ccccc1N1CCN(C(=O)[C@@H](Cc2ccc(Cl)cc2)NC(=O)[C@H]2Cc3ccccc3CN2)CC1 (some centres undefined) [NBI-58704] | 13.5 nM |
| CN(Cc1cccnc1)Cc1ccccc1N1CCN(C(=O)[C@@H](Cc2ccc(Cl)cc2)NC(=O)[C@H]2Cc3ccccc3CN2)CC1 | 74.1 nM |
| CN(Cc1ccccc1N1CCN(C(=O)[C@@H](Cc2ccc(Cl)cc2)NC(=O)[C@H]2Cc3ccccc3CN2)CC1)C1CCCNC1 (some centres undefined) [NBI-58702] | 6.31 nM |
| C[C@@H]1CN(Cc2ccccc2N2CCN(C(=O)[C@@H](Cc3ccc(Cl)cc3)NC(=O)[C@H]3Cc4ccccc4CN3)CC2)[C@@H](C)CN1 [NBI-56297] | 20 nM |
